Columns and labels:
[1] = target: T1, recombinant human cathepsin S (Homo sapiens, UniProt P25774); experiment: Cathepsin S enzyme inhibition in vitro (kinetic fluorescence assay); format: biochemical; conditions: Ki(cathepsin S)/Ki(calpain) ratio
T1 construct: purchased Calbiochem 219343; host or cells: E. coli
In short: (§1)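 Kinetic AMC fluorescence (ex 390/em 460 nm), room temperature. Calpain-I 20 nM, 100 μM Suc-Leu-Tyr-AMC, imidazole/CaCl2 pH 7.3; cathepsins B 0.25 nM/100 μM Z-Phe-Arg-AMC, K 3 nM/10 μM Z-Gly-Pro-Arg-AMC, S 0.5 nM/20 μM Z-Val-Val-Arg-AMC, each MES/EDTA/cysteine pH 6.0. Ki from IC50 via Cheng-Prusoff, averaging 2–4 curves.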

[2] = Assay for determining cytosolic clearance, cynomolgus monkey liver cytosol; format: in vitro ADME; conditions: 0.5 μM compound, 1 mg/ml cynomolgus monkey liver cytosol, 37° C., pH 7.5
Procedure: (§2) For comparison purposes data measured with human liver cytosol were contrasted with those obtained with cynomolgus monkey liver cytosol.
(§3) 0.5 μM of a compound to be tested was incubated with 1 mg/ml of human liver cytosol as well as monkey liver cytosol at 37° C. in 0.5 M of phosphate buffer at pH 7.5 while shaking (commercial sources: female cynomolgus liver cytosol from Tebu bio, human liver cytosol from BDgentest).
(§4) In each case aliquots of 65 μl were taken after 0, 5, 10 and 15 min and transferred into wells of a wellplate which were immediately filled with 130 μl of ethanol to stop the reaction. The samples were kept frozen until analysis on a LC/MS/MS system (Applied Biosystems SCIEX 4000).
(§5) Read out parameters were the loss of parent compounds, from which the half life periods (T1/2) were calculated from.
(§6) To assess the stability of the compounds tested the clearance ranges were adjusted to the hepatic plasma flow of the different species according to the following scheme:
(§7) stable=from 0 to about ⅓ of the hepatic plasma flow;
(§8) moderately stable=from about ⅓ to about ⅔ of the hepatic plasma flow;
(§9) instable=more than ⅔ of the hepatic plasma flow.
(§10) Based on this adjustment the following qualifiers were assigned to evaluate the cytosolic stabilities of the compounds tested: […]

[3] = target: T2, cathepsin L isolated from human liver (Homo sapiens, UniProt P07711); experiment: Cathepsin L enzyme inhibition in vitro (kinetic fluorescence assay); format: biochemical; conditions: Ki(cathepsin L)/Ki(calpain) ratio
T2 construct: cathepsin L—isolated from human liver; purchased Calbiochem 219402; host or cells: human liver (tissue-derived)
In short: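 Inhibition of cathepsin L isolated from human liver was measured by kinetic fluorescence (excitation 390 nm, emission 460 nm) using 1 nM enzyme and 2 μM Z-Phe-Arg-AMC substrate (Km 2 μM) in 50 mM MES, 2 mM EDTA, 0.05% Brij 35, 2.5 mM L-cysteine, pH 6.0, at room temperature. Apparent Ki values came from IC50 values via the Cheng-Prussoff relation, averaged over 2 to 4 dose-effect plots.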

[4] = target: T3, cathepsin B isolated from human liver (Homo sapiens, UniProt P07858); experiment: Cathepsin B enzyme inhibition in vitro (kinetic fluorescence assay); format: biochemical; conditions: Ki(cathepsin B)/Ki(calpain) ratio
T3 construct: cathepsin B—isolated from human liver; purchased Calbiochem 219362; host or cells: human liver (tissue-derived)
In short: as §1

[5] = target: T4, cathepsin K activated from recombinant human procathepsin K (Homo sapiens, UniProt P43235); experiment: Cathepsin K enzyme inhibition in vitro (kinetic fluorescence assay); format: biochemical; conditions: Ki(cathepsin K)/Ki(calpain) ratio
T4 construct: purchased Calbiochem 342001; host or cells: E. coli
T4 sequence (P43235 115-329): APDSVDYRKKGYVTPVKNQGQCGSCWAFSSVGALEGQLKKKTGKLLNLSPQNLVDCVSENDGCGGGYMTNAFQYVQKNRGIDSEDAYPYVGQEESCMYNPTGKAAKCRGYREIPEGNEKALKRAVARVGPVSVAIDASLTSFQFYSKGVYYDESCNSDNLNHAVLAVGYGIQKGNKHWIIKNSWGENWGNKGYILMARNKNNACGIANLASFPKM
In short: as §1

[6] = Assay for determining cytosolic clearance, human liver cytosol; format: in vitro ADME; conditions: 0.5 μM compound, 1 mg/ml human liver cytosol, 37° C., pH 7.5
Procedure: as §2, §3, §4, §5, §6, §7, §8, §9, §10

[7] = target: T5, calpain-I isolated from human erythrocytes (Homo sapiens, UniProt P07384); experiment: Calpain I enzyme inhibition in vitro (kinetic fluorescence assay); format: biochemical; conditions: apparent Ki from IC50 (Cheng-Prussoff); 20 nM calpain-I, 100 μM Suc-Leu-Tyr-AMC, pH 7.3, room temperature
T5 construct: calpain-I—isolated from human erythrocytes; purchased Calbiochem 208713; host or cells: human erythrocytes (tissue-derived)
T5 sequence (P07384 1-714): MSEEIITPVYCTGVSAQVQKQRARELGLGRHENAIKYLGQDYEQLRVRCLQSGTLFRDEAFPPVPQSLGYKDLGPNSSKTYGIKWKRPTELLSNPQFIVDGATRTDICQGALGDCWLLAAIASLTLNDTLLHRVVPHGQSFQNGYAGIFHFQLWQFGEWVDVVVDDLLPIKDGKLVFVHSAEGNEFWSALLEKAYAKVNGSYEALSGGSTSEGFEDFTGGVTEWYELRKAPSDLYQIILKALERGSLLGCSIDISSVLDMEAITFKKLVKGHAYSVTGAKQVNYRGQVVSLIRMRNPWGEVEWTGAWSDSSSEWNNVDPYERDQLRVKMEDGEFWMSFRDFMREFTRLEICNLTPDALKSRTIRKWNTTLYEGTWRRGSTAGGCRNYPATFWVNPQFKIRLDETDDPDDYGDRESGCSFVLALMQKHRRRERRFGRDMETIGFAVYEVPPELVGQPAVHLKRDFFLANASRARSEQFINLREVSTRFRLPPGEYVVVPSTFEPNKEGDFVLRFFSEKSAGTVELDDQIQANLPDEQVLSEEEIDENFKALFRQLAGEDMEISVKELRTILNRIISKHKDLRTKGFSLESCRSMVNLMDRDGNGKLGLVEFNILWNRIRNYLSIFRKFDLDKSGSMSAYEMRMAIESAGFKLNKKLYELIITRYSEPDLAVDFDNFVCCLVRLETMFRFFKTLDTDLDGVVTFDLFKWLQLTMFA
T5 sequence (P04632 1-268 partner): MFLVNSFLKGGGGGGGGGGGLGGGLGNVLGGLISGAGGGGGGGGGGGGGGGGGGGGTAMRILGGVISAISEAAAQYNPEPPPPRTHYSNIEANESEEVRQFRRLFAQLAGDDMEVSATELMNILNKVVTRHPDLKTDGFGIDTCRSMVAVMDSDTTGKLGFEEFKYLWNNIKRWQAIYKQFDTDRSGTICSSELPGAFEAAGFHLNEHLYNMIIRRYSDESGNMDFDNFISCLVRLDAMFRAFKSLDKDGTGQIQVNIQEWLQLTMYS
In short: as §1

T2 sequence (P07711 114-333): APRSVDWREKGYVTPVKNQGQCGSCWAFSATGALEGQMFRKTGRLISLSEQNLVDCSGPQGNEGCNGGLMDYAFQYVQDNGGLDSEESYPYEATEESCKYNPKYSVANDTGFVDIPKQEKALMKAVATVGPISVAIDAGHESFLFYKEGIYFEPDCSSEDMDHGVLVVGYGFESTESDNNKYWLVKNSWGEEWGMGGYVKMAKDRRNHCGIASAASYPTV
T1 sequence (P25774 115-331): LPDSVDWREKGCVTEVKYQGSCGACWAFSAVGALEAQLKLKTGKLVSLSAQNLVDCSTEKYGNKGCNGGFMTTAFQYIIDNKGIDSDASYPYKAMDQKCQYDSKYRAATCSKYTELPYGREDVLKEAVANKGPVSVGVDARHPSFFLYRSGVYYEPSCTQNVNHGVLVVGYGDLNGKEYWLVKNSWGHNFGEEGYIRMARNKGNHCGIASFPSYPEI

Compound | cyno cytCL [2] | human cytCL [6] | Ki [7] [nM] | Sel cat. S [1] | Sel cat. L [3] | Sel cat. B [4] | Sel cat. K [5]
O=C(NC1CC1)C(=O)C(Cc1ccccc1)NC(=O)[C@H]1CCC(=O)N1Cc1ccccc1 (mixture of isomers) [Example 27, (2R)-1-Benzyl-N-(4-(cyclopropylamino)-3,4-dioxo-1-phenylbutan-2-yl)-5-oxopyrrolidine-2-carboxamide] | ++ (0-18 μl/min/mg) | ++ (0-14 μl/min/mg) | 100 to 600 | ++ (30<Ki(cathepsin B)/Ki(calpain)≦100) | +++ (Ki(cathepsin L)/Ki(calpain) ratio of >30) | +++ (Ki(cathepsin B)/Ki(calpain) ratio of >30) | +++ (Ki(cathepsin K)/Ki(calpain) ratio of >30)
O=C(NCc1ccc(C(F)(F)F)cc1)C(=O)C(Cc1ccccc1)NC(=O)[C@H]1CCC(=O)N1Cc1ccccc1 (mixture of isomers) [Example 68, (2R)-1-Benzyl-N-(3,4-dioxo-1-phenyl-4-(4-(trifluoromethyl)benzylamino)butan-2-yl)-5-oxopyrrolidine-2-carboxamide] | ++ (0-18 μl/min/mg) |  | 100 to 600 | +++ (Ki(cathepsin S)/Ki(calpain) ratio of >100) | ++ (10<Ki(cathepsin B)/Ki(calpain)≦30) | +++ (Ki(cathepsin B)/Ki(calpain) ratio of >30) | +++ (Ki(cathepsin K)/Ki(calpain) ratio of >30)
COc1cccc(C(F)(F)F)c1CN1C(=O)CC[C@@H]1C(=O)NC(Cc1ccccc1)C(=O)C(N)=O (stereo partly drawn) [Example 50, (2R)—N-(4-Amino-3,4-dioxo-1-phenylbutan-2-yl)-5-oxo-1-[2-methoxy-6-(trifluoromethyl)benzyl]pyrrolidine-2-carboxamide] | + (18-90 μl/min/mg) | + (14-70 μl/min/mg) | < 50 | +++ (Ki(cathepsin S)/Ki(calpain) ratio of >100) | +++ (Ki(cathepsin L)/Ki(calpain) ratio of >30) | +++ (Ki(cathepsin B)/Ki(calpain) ratio of >30) | +++ (Ki(cathepsin K)/Ki(calpain) ratio of >30)
CNC(=O)C(=O)C(Cc1ccccc1)NC(=O)[C@H]1CCC(=O)N1Cc1ccccc1 (mixture of isomers) [Example 25, (2R)-1-Benzyl-N-(4-(methylamino)-3,4-dioxo-1-phenylbutan-2-yl)-5-oxopyrrolidine-2-carboxamide] | ++ (0-18 μl/min/mg) | ++ (0-14 μl/min/mg) | 100 to 600 | ++ (30<Ki(cathepsin B)/Ki(calpain)≦100) | +++ (Ki(cathepsin L)/Ki(calpain) ratio of >30) | +++ (Ki(cathepsin B)/Ki(calpain) ratio of >30) | +++ (Ki(cathepsin K)/Ki(calpain) ratio of >30)
O=C(NC1CC1)C(=O)C(Cc1ccccc1)NC(=O)[C@H]1CCC(=O)N1Cc1ccccc1C(F)(F)F (mixture of isomers) [Example 36, (2R)—N-(4-(Cyclopropylamino)-3,4-dioxo-1-phenylbutan-2-yl)-5-oxo-1-(2-(trifluoromethyl)benzyl)pyrrolidine-2-carboxamide] | ++ (0-18 μl/min/mg) | ++ (0-14 μl/min/mg) | 50 to 100 | +++ (Ki(cathepsin S)/Ki(calpain) ratio of >100) | +++ (Ki(cathepsin L)/Ki(calpain) ratio of >30) | ++ (10<Ki(cathepsin B)/Ki(calpain)≦30) | +++ (Ki(cathepsin K)/Ki(calpain) ratio of >30)
O=C(NCc1ccccn1)C(=O)C(Cc1ccccc1)NC(=O)[C@H]1CCC(=O)N1Cc1ccccc1 (stereo partly drawn) [Example 20, (2R)-1-Benzyl-N-{3,4-dioxo-1-phenyl-4-[(pyridin-2-ylmethyl)amino]butan-2-yl}-5-oxopyrrolidine-2-carboxamide] | ++ (0-18 μl/min/mg) | ++ (0-14 μl/min/mg) | 50 to 100 | +++ (Ki(cathepsin S)/Ki(calpain) ratio of >100) | ++ (10<Ki(cathepsin B)/Ki(calpain)≦30) | +++ (Ki(cathepsin B)/Ki(calpain) ratio of >30) | +++ (Ki(cathepsin K)/Ki(calpain) ratio of >30)

Further lines, with some results ahead:

cyno cytCL [2] | human cytCL [6] | Ki [7] [nM] | Compound | Sel cat. S [1] | Sel cat. L [3] | Sel cat. B [4] | Sel cat. K [5]
++ (0-18 μl/min/mg) | ++ (0-14 μl/min/mg) | 100 to 600 | COc1cccc(C(F)(F)F)c1CN1C(=O)CC[C@@H]1C(=O)NC(Cc1ccccc1)C(=O)C(=O)NCc1ccccn1 (mixture of isomers) [Example 43, (2R)—N-(3,4-Dioxo-1-phenyl-4-(pyridin-2-ylmethylamino)butan-2-yl)-1-(2-methoxy-6-(trifluoromethyl)benzyl)-5-oxopyrrolidine-2-carboxamide] | ++ (30<Ki(cathepsin B)/Ki(calpain)≦100) | +++ (Ki(cathepsin L)/Ki(calpain) ratio of >30) | +++ (Ki(cathepsin B)/Ki(calpain) ratio of >30) | +++ (Ki(cathepsin K)/Ki(calpain) ratio of >30)
++ (0-18 μl/min/mg) | ++ (0-14 μl/min/mg) | 100 to 600 | CCNC(=O)C(=O)C(Cc1ccccc1)NC(=O)[C@H]1CCC(=O)N1Cc1ccccc1C(F)(F)F (mixture of isomers) [Example 37, (2R)—N-(4-(Ethylamino)-3,4-dioxo-1-phenylbutan-2-yl)-5-oxo-1-(2-(trifluoromethyl)-benzyl)pyrrolidine-2-carboxamide] | + (10<Ki(cathepsin S)/Ki(calpain)≦30) | +++ (Ki(cathepsin L)/Ki(calpain) ratio of >30) | ++ (10<Ki(cathepsin B)/Ki(calpain)≦30) | ++ (10<Ki(cathepsin B)/Ki(calpain)≦30)
++ (0-18 μl/min/mg) | ++ (0-14 μl/min/mg) |  | CCNC(=O)C(=O)C(Cc1ccccc1)NC(=O)[C@H]1CCC(=O)N1Cc1c(OC)cccc1C(F)(F)F (mixture of isomers) [Example 42, (2R)—N-(4-(Ethylamino)-3,4-dioxo-1-phenylbutan-2-yl)-1-(2-methoxy-6-(trifluoromethyl)benzyl)-5-oxopyrrolidine-2-carboxamide] |  | ++ (10<Ki(cathepsin B)/Ki(calpain)≦30) | ++ (10<Ki(cathepsin B)/Ki(calpain)≦30) | ++ (10<Ki(cathepsin B)/Ki(calpain)≦30)
